Measurements as given in the supplement of paper PMC4862054.

Key:
Conditions in all cases: incubation time: 72 h
MDA-MB-436 [1] = assay: normalised response (% of control), CellTox Green; higher = less cell death (100 = DMSO, 0 = benzethonium chloride kill control)
Method in brief: (§1)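 Breast cancer cell lines, seeded at 20 µl suspension per well, were incubated for 72 h in 384-well plates containing compound at 5 concentrations. These concentrations rose in 10-fold steps over a 10,000-fold range set for each compound. CellTox Green fluorescence (485/520 nm) was read, then CellTiter-Glo luminescence after 10 min at room temperature, and each plate was normalised to 0.1 % DMSO (100) and a positive kill control (0). Values are normalised signals, each at one concentration.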

HCC1937 [2] = assay: as above
Method in brief: as §1

CAL-148 [3] = assay: as above
Method in brief: as §1

Hs578T [4] = assay: as above
Method in brief: as §1

HDQ-P1 [5] = assay: as above
Method in brief: as §1

HCC1599 [6] = assay: as above
Method in brief: as §1

CAL-120 [7] = assay: as above
Method in brief: as §1

BT-474 [8] = assay: as above
Method in brief: as §1

HCC1143 [9] = assay: as above
Method in brief: as §1

CAL-51 [10] = assay: as above
Method in brief: as §1

MCF-10A [11] = assay: as above
Method in brief: as §1

MDA-MB-231 [12] = assay: as above
Method in brief: as §1

BT-549 [13] = assay: as above
Method in brief: as §1

MDA-MB-468 [14] = assay: as above
Method in brief: as §1

DU-4475 [15] = assay: as above
Method in brief: as §1

MDA-MB-453 [16] = assay: as above
Method in brief: as §1

MFM-223 [17] = assay: as above
Method in brief: as §1

CAL-85-1 [18] = assay: normalised response (% of control), CellTiter-Glo; higher = more viable cells (100 = DMSO, 0 = benzethonium chloride kill control)
Method in brief: as §1

MDA-MB-436 [19] = assay: as above
Method in brief: as §1

HCC1937 [20] = assay: as above
Method in brief: as §1

CAL-148 [21] = assay: as above
Method in brief: as §1

Hs578T [22] = assay: as above
Method in brief: as §1

HDQ-P1 [23] = assay: as above
Method in brief: as §1

HCC1599 [24] = assay: as above
Method in brief: as §1

CAL-120 [25] = assay: as above
Method in brief: as §1

BT-474 [26] = assay: as above
Method in brief: as §1

HCC1143 [27] = assay: as above
Method in brief: as §1

CAL-51 [28] = assay: as above
Method in brief: as §1

MCF-10A [29] = assay: as above
Method in brief: as §1

SK-BR-3 = assay: as above
Method in brief: as §1

MDA-MB-231 [30] = assay: as above
Method in brief: as §1

BT-549 [31] = assay: as above
Method in brief: as §1

MDA-MB-468 [32] = assay: as above
Method in brief: as §1

DU-4475 [33] = assay: as above
Method in brief: as §1

MDA-MB-453 [34] = assay: as above
Method in brief: as §1

MFM-223 [35] = assay: as above
Method in brief: as §1

CAL-85-1 [36] = assay: normalised response (% of control), CellTox Green; higher = less cell death (100 = DMSO, 0 = benzethonium chloride kill control)
Method in brief: as §1

| Structure (SMILES) | normalised response (MDA-MB-436 [1]) [%] | normalised response (HCC1937 [2]) [%] | normalised response (CAL-148 [3]) [%] | normalised response (Hs578T [4]) [%] | normalised response (HDQ-P1 [5]) [%] | normalised response (HCC1599 [6]) [%] | normalised response (CAL-120 [7]) [%] | normalised response (BT-474 [8]) [%] | normalised response (HCC1143 [9]) [%] | normalised response (CAL-51 [10]) [%] | normalised response (MCF-10A [11]) [%] | normalised response (MDA-MB-231 [12]) [%] | normalised response (BT-549 [13]) [%] | normalised response (MDA-MB-468 [14]) [%] | normalised response (DU-4475 [15]) [%] | normalised response (MDA-MB-453 [16]) [%] | normalised response (MFM-223 [17]) [%] | normalised response (CAL-85-1 [18]) [%] | normalised response (MDA-MB-436 [19]) [%] | normalised response (HCC1937 [20]) [%] | normalised response (CAL-148 [21]) [%] | normalised response (Hs578T [22]) [%] | normalised response (HDQ-P1 [23]) [%] | normalised response (HCC1599 [24]) [%] | normalised response (CAL-120 [25]) [%] | normalised response (BT-474 [26]) [%] | normalised response (HCC1143 [27]) [%] | normalised response (CAL-51 [28]) [%] | normalised response (MCF-10A [29]) [%] | normalised response (SK-BR-3) [%] | normalised response (MDA-MB-231 [30]) [%] | normalised response (BT-549 [31]) [%] | normalised response (MDA-MB-468 [32]) [%] | normalised response (DU-4475 [33]) [%] | normalised response (MDA-MB-453 [34]) [%] | normalised response (MFM-223 [35]) [%] | normalised response (CAL-85-1 [36]) [%] |
| --- | --- | --- | --- | --- | --- | --- | --- | --- | --- | --- | --- | --- | --- | --- | --- | --- | --- | --- | --- | --- | --- | --- | --- | --- | --- | --- | --- | --- | --- | --- | --- | --- | --- | --- | --- | --- | --- |
| CS(=O)(=O)N1CCN(Cc2cc3nc(-c4cccc5[nH]ncc45)nc(N4CCOCC4)c3s2)CC1 [Pictilisib] (1000 nM) | 99.6 | 126 | 53.4 | 108 | 87.1 | 103 | 100 | 97.5 | 62.9 | 92.7 | 44.2 | 99.3 | 125 | 45.4 | 98.3 | 96.7 | 76.8 | 63.5 | 72.7 | 73.9 | 66.3 | 64.3 | 47.1 | 96.1 | 64.9 | 69.4 | 68 | 57.4 | 38.4 | 40.4 | 70.5 | 58.7 | 72.9 | 86.5 | 38.6 | 66.5 |  |
| c1cc(CN2CCCNCCNCCCNCC2)ccc1CN1CCCNCCNCCCNCC1 [Plerixafor] (1000 nM) |  | 54.1 | 92.3 |  | 58.5 | 88.8 | 96.6 | 95.2 |  | 89.1 | 86.6 | 82.7 | 107 | 85 | 91.8 | 99 | 97.4 | 96.1 | 102 | 101 | 90.4 | 91.4 | 101 | 102 | 111 | 93.7 | 97.3 | 111 | 81.8 | 80 | 96.9 | 105 | 98.1 | 92.1 | 80.1 | 87.3 | 105 |
| CC(C)N(CCCNC(=O)Nc1ccc(C(C)(C)C)cc1)C[C@H]1O[C@@H](n2cc(Br)c3c(N)ncnc32)[C@H](O)[C@@H]1O [SGC0946] (1000 nM) | 97.8 | 93.1 |  |  | 103 | 91.8 | 95.7 | 97.3 |  | 100 | 107 | 101 | 99.9 | 111 | 95.8 | 105 | 98.4 | 102 | 93.4 | 97.3 | 91.3 | 103 | 102 | 102 | 100 | 103 | 96.5 | 118 | 97.9 | 95.7 | 92.1 | 95.5 | 86.5 | 98.4 | 104 | 94 | 96.3 |
